One series in a line: Plasma PK in rats. Format: in vivo, rat. As to conditions: oral administration. On the procedure:
Routine in vitro pharmacokinetic (PK) profiling of 8015 and its enantiomers (8015-P1 and 8015-P2) was performed at WuXi Apptec Co., Ltd. (Shanghai, China) using standard methods as described ([Dang et al., 2020], [2021]). In vivo PK profiling was performed by Frontage Laboratories (Exton PA, USA). The vehicle used for intravenous and oral PK studies was 12% sulfobutylether-β-cyclodextrin (SBE-β-CD; CyDex Pharmaceutical Inc., Lenexa KS, USA) in sterile water.

The test system of the next series is Mfn2 T105M knock-in mice. Description: CMT2A phenotype reversal in Mfn2 T105M knock-in mice. Format: in vivo, mouse. On the procedure: The creation of mice with human CMT2A mutations MFN2 T105M and M376V CRISPR-engineered into the mouse Mfn2 gene has been reported, as was absence of a cardiac phenotype ([Franco et al., 2023]). Neuromuscular phenotyping was performed for the current studies (vide infra). Results of male and female mice were combined as there were no observed sex differences.
Mfn2 T105M knock-in mice underwent evaluation at 10-week intervals to establish basal phenotype progression. 8015 or 8015-P2 treatment studies were performed after final baseline evaluations at 50 weeks of age. 8015 (transgenic MFN2 T105M model) or 8015-P2 (Mfn2 T105M knock-in model) were administered at doses of 50 mg/kg by oral gave once daily in the morning. Repeat phenotyping was performed after 4 and 8 weeks of treatment (transgenic model) or 6 weeks of treatment (knock-in model), after which the mice were killed by anesthesia overdose and tissue specimens obtained for histologic and ultrastructural studies, as described ([Franco et al., 2020]).
Rotarod studies were performed on mice initially familiarized and trained on the Rotarod (Ugo Basile, Gemonio, VA, Italy;# 47650) at a speed of 5 rpm. For evaluation, the initial speed of 5 rpm accelerated to 40 rpm over 120 seconds and then maintained 40 rpm for a maximum of 180 seconds. For each trial, five tests were performed with at least 5 minutes rest between each test. No trends were observed from test 1 to test 5. In total, three trials were performed over sequential days to account for variabilities of the Rotarod test and between days. For each mouse, the latency (time to falling off) of replicate tests for each trial day were averaged, and results of the three independent trials were averaged to obtain a result for that condition (i.e., age, genotype, and/or drug treatment).
Neuroelectrophysiologic recordings of hindlimb compound muscle action potentials (CMAP) were performed with a Viasys Healthcare Nicolet Biomedical instrument (Middleton, WI, USA Cat:# OL060954) using Viking Quest version 11.2 software. Nerve stimulation used 3.9 mV pulses of 0.002 milliseconds duration administered through a needle electrode placed at the proximal sciatic nerve through a posterior lumbar approach. Muscle depolarization was monitored using a loop electrode placed around the mid distal hindlimb, corresponding to the greatest girth of the tibialis and gastrocnemius muscles.
An inverted grid suspension test was used to assess grip strength and coordination. Mice were placed on a grid, which was slowly inverted no higher than three feet above a padded surface; the time to falling off (latency) was recorded up to a maximum of 500 seconds. Each mouse underwent at least three independent studies on different days, and the longest latency time was used ([Aartsma-Rus and van Putten, 2014]). Obese mice (>150% of mean weight for that condition) were preemptively excluded.
Mechanical sensitivity was measured using the von Frey test ([Martinov et al., 2013]). Mice were placed in a plexiglass chamber with a mesh grid floor and allowed to accommodate for at least 20 minutes or until exploratory behavior had ceased. The response to mechanical stimulation of hind paws used IITC Supertips filaments and an electronic von Frey anesthesiometer (IITC Life Science, Inc. Woodland Hills CA, USA). Filaments were applied to the footpads with a gradual increase in pressure until paw withdrawal was evoked; the maximum applied force was recorded. Paws of the left and right foot were alternately measured, with at least six measurements taken per animal and the results averaged for each mouse.
Confocal imaging of gastrocnemius myocyte cross-sectional area (wheat germ agglutinin staining) and synapse density (α-bungarotoxin staining) was performed as described ([Franco et al., 2020]). […]

Another series deals with Mfn2 null MEF cells. Put plainly: Mitochondrial elongation (fusogenicity, mitochondrial aspect ratio) in Mfn2 null MEFs. In kind it is cell-based, mouse. On the procedure: Mitochondrial polarization based on tetramethyl rhodamine ester fluorescence and fusogenicity based on an increase in mitochondrial aspect ratio were measured in static confocal images of live cells using methods that we have extensively validated ([Franco et al., 2016], [2020]; [Rocha et al., 2018]; [Zhang et al., 2022]). As necessary, red, green, and blue brightness, or rarely contrast, were adjusted in individual confocal images prior to merging to enhance clarity. All adjustments were performed across the entire image.
Mitochondrial elongation was assessed in Mfn2 null MEF cells after treatment with compounds at concentrations ranging from 0.5 nM–10 μM in DMSO for 14 h. Mitochondria were stained with MitoTracker Orange, and nuclei were costained with Hoechst before confocal microscope imaging; at least three independent experiments were performed. Mitochondrial aspect ratio (length/width) of at least 10 cells was measured for each experiment using National Institutes of Health ImageJ. […] Concentration-response curves were generated using a sigmoidal model in Prism 8 software. EC50 and Emax values and their variances were calculated from interpolated data of all replicate experiments in a series.

Series [1] can be described thus: Enterohepatic recirculation study: oral PK without and with activated charcoal. Format: in vivo, mouse. As to conditions: mice; for AUC(0-t) / half-life: mouse, plasma, po, 5 mg/kg; for half-life: read-out: Plasma t1/2 (converted). On the procedure:
Enterohepatic recirculation (EHR) of 8015-P2 was tested by fasting mice overnight prior to administration of the compound (5 mg/kg) by oral gavage. 1 hour later, activated charcoal (2 g/kg) was administered by oral gavage to half of the mice; all mice were fed 2 hours after 8015-P2 dosing to induce gall bladder emptying. […] Areas under the concentration curves were calculated from the raw data; plasma half-times were estimated by linear regression of the second, slower elimination phase.

The subject of series [2] is Mfn2 T105M KI DRG neurons. Description: Mitochondrial motility in DRG neurons from Mfn2 T105M KI mice. Format: cell-based, mouse. Conditions: 100 nM for 48 hours. On the procedure: DRG neurons were isolated from ∼8-week-old Mfn2 T105M motor neuron transgenic mice, Mfn2 T105M KI mice, or Mfn1 fl/fl/Mfn2 fl/fl mice and cultured as described ([Dang et al., 2023]).
(§1) Mitochondrial motility in neuronal processes of cultured reprogrammed human motor neurons ([Abernathy et al., 2017]; [Dang et al., 2023]), mouse DRG neurons transduced with adeno-Mito-DS-Red2, or axons of ex vivo mouse sciatic nerves stained with tetramethyl rhodamine ester was measured using time-lapse confocal microscopy on a Nikon Eclipse Ti2 confocal microscope as described ([Franco et al., 2016], [2020]; [Rocha et al., 2018]). Mouse DRG neurons and reprogrammed human CMT2A motor neurons were transduced with adeno-Mito-DS-Red2 to visualize mitochondria; ex vivo sciatic nerve mitochondria were labeled with tetramethyl rhodamine ester (200 nM for 30 minutes at 37° C). Time-lapse imaging was carried out using confocal microscopy on a Nikon Eclipse Ti2 confocal microscope with 1 frame captured every 5 seconds for 180 frames (15 minutes). Kymographs and quantitative data were generated using the ImageJ plug-in: Velocity_Measurement_Tool.

For series [3], the system named is Mfn2 T105M KI mouse sciatic nerve axons. Put plainly: Ex vivo mitochondrial motility in sciatic nerve axons after oral dosing. As to conditions: 100 mg/kg by oral gavage. On the procedure: as §1
The next series concerns mitofusins. Also on record: method as in Zhang et al., 2022. As to conditions: ref Zhang et al., 2022; cited from earlier work.
The conditions of series [4]: ref Dang et al., 2021 (cpd 5b); cited from earlier work.
For series [5] the following is noted: p.o. 50 mg/kg, ref Dang et al., cited from earlier work.
The conditions of series [6]: ref Dang et al., cited from earlier work.
On the set-up of series [7]: method as in earlier work. As to conditions: ref Piyachaturawat et al., 1983, Bhardwaj et al., 2002, Lee et al., 2005, McNamara et al.; cited from earlier work.
Where [8] appears, read: 50 mg/kg once daily by oral gavage for 6 weeks.
[9] abbreviates: 5 mg/kg oral, with vs. without charcoal.
Where [10] appears, read: 5 mg/kg oral, activated charcoal by gavage 1 hour after dosing.

This is an account of results in publication PMC11493442, “Sensory-Motor Neuropathy in Mfn2 T105M Knock-in Mice and Its Reversal by a Novel Piperine-Derived Mitofusin Activator” (The Journal of Pharmacology and Experimental Therapeutics, 2024).

Read-outs that look alike come from different tables or passages of the source. Bounds are passed on as bounds.

By EC50 is commonly meant the concentration that produces a half-maximal response. The term AUC(0-t) denotes exposure summed from dosing to a finite time, without extrapolation to infinity. A lower AUC(0-t) goes with low exposure.

With `O=C(NC1CC1CCCCc1ccccc1)C1CCC(O)CC1` (stereo not shown) [Compound 8015-P2], the “Waxing and waning of plasma levels” value in the series “Plasma PK in rats” was “not observed”. For the same molecule, in the series with Mfn2 T105M knock-in mice (setting [8]), the “Motor neuron functional metrics (Rotarod latency, inverted grasp)” value was “normalized”; the “Neuroelectrophysiological abnormality (CMAP amplitude)” value is reported as “normalized”; the “Sensory neuron metric (von Frey foot pad mechanical sensitivity)” value is given as “normalized”. In addition, in the series on Mfn2 T105M knock-in mice (6 weeks of administration), the “Gastrocnemius myocyte cross-sectional area” value was “reversed”, the Neuromuscular synapse density entry is recorded as “reversed” and the “Proportion of tibialis nerve neurons with small axonal areas (lowest quartile)” value is listed as “reversed”. The “Mitofusin activator potency (in words)” value in the series on Mfn2 null MEF cells is given as “subnanomolar potency”. For the same molecule, the “Comparative fusogenic potency of the two 8015 isomers” value in the series on Mfn2 null MEF cells (Mfn2-deficient mitochondria, n = 4 each) was “markedly more potent and effective than 8015-P1”. For the same molecule, the EC50 with Mfn2 null MEF cells (Mus musculus, MEF, 95% confidence limits 439 - 863PM, n = 4, read-out: EC50 as a fusogenic factor (fusion of Mfn2-deficient mitochondria)) was determined as 0.623 nM. Besides, the “Fold greater fusogenic potency versus comparators” value with Mfn2 null MEF cells (versus trans-MiM111 or CPR1-B / previously described mitofusin activators) is recorded as about 10 fold. Besides, in [1] (setting [9]), the “Decrease of AUClast by charcoal” value is given as 17% and the “Decrease of t1/2 by charcoal” value is 36%. For the same molecule, the Enterohepatic recirculation result in series [1] (oral) is reported as “undergoes enterohepatic recirculation”. Also, in series [1] (setting [10]), the AUC(0-t) was 739 ng·h/mL and the half-life was 1.21 h. Further, in series [1] (5 mg/kg oral, without charcoal), the AUC(0-t) came out at 887 ng·h/mL and the half-life was 1.88 h. Further, the “Mitochondrial motility in DRG neuronal processes” value in series [2] is “corrected”. Moreover, the “Mitochondrial motility in sciatic nerve axons, ex vivo” value in series [3] is “corrected mitochondrial dysmotility”.
In the case of `O=C(NC1CC1CCCc1ccccc1)[C@H]1CC[C@H](O)CC1` (stereo partly shown) [Cpd 10], the Mitofusin activator activity result in the series on mitofusins is “functionally inactive”.
Consider `O=C(N[C@H]1CC[C@H](O)CC1)C1CC1CCCc1ccccc1` (stereo partly drawn) [CPR1-B, N-(trans-4-hydroxycyclohexyl)-2-(3-phenylpropyl)cyclopropane-1-carboxamide], for which the “Aqueous solubility (pH 7.4)” value in [4] is under 10 uM. In series [5] (2021 (cpd 5b)), the Bioavailability is recorded as 59%. In addition, in series [6] (2021 (cpd 5b)), the “calc logP” value is reported as 3.09.
In the case of `O=C(/C=C/C=C/c1ccc2c(c1)OCO2)N1CCCCC1` [piperine], the “Mitofusin activation potency (in words)” value in the series on mitofusins was “approximately the same potency as phenylhexanamide compounds”. Moreover, the Cytotoxicity entry in series [7] is reported as “can be cytotoxic at higher concentrations”.
For the molecule `O=C(CCCCCc1ccccc1)N[C@H]1CC[C@H](O)CC1` [trans-MiM111, N-(trans-4-hydroxycyclohexyl)-6-phenylhexanamide], the Bioavailability in series [5] (2020 (cpd 13b)) was 61%. For the same molecule, the “calc logP” value in [6] (2020 (cpd 13b)) is reported as 3.22.
